Measured values: ChEMBL document CHEMBL3217630, “Intramolecular hydrogen bonding to improve membrane permeability and absorption in beyond rule of five chemical space” (Medchemcomm, 2011)

Legend:
[1] = (§1) Oral bioavailability in rat; type: ADME, organism-based; conditions: in vivo
[2] = Fraction of the dose absorbed in rat; type: ADME, organism-based; conditions: in vivo, read-out: Fabs
[3] = Apparent permeability across apical to basolateral side of MDCK cells; type: ADME, cell-based, Canis lupus familiaris; conditions: dog
[4] = Oral bioavailability in human; type: ADME, organism-based; conditions: in vivo
Rattus norvegicus = assay: as §1; type: ADME, organism-based; conditions: in vivo

Structure (SMILES) | bioavailability [1] | Fa [2] | Papp A→B [3] | bioavailability [4] | F (Rattus norvegicus)
COC(=O)N[C@H](C(=O)N[C@@H](Cc1ccccc1)[C@@H](O)CN(Cc1ccc(-c2ccccn2)cc1)NC(=O)[C@@H](NC(=O)OC)C(C)(C)C)C(C)(C)C [ATAZANAVIR] | 10% | 54% | 350 nm/s | 60% | –
COCCCOc1cc(C[C@@H](C[C@H](N)[C@@H](O)C[C@H](C(=O)NCC(C)(C)C(N)=O)C(C)C)C(C)C)ccc1OC | – | 0.5% | 10 nm/s | 3% | 0.1%
